The values below come from patent publication US4525356A, “N-substituted flavone-8-carboxamides” (Hokuriku Pharmaceutical Co., Ltd., priority 1982, dated 1985).

Each structure is given as a SMILES string.

The nature of one data set: in vitro. It counts as in vitro ADME, male Wister rats. The conditions noted are these: rat, pH 6; for Ratio of Effect (T 1/2): 50 uM; for half-life at 50 µM: small intestinal mucosa homogenate. As to the method: (2) Stability in acidic medium (corresponding to artificial small intestinal juice)
After sacrificing male Wister rats (weighing approximately 300 g), small intestine was taken out and small intestinal mucous membrane was scraped off, and 20 ml of 0.1M phosphate buffer (pH 6.00) were added per 0.5 g of small intestinal mucous membrane (wet weight) to give 2.5% of homogenate.
Test compound was dissolved in the homogenate to give definite concentration (50 uM). With shaking of the obtained mixture at 37° C., sampling was carried out from time to time, and the content of each compound was quantitatively measured by analyzing peak height of each compound by a reversed-phase high performance liquid chromatography. The half-life time of each compound in acidic medium (corresponding to artificial small intestinal juice, pH 6.0) was measured from a graph indicating content change of each compound against time.
The compounds of the present invention and flavoxate (Reference 1) should be absorbed, after p.o. administation, in the small intestine to show medical effect. Therefore, the stability of the compounds against the hydrolyzation according to the nonspecific esterase contained in small intestinal mucous membrane is very important.

For the next data set, the system named is urinary reflex. The experiment in a line: Supression of urinary reflex (bladder balloon, intraduodenal administration). It counts as in vivo, male Wister rats. The conditions noted are these: for ED50: Rattus norvegicus, 50% effective dose, suppression of urinary reflex by more than 50%, up and down method, anesthetized male Wister rats, via duodenum, read-out: ID50 (the source's name); for Ratio of Effect: from ID50, Effect of Reference (Reference 1) defined as 1.00. As to the method: According to the method of Kaseda et al. (Rinsho Seiri, 5, 540 (1975)), male Wister rats, weighing approximately 300 g and fasted for 15 to 20 hours prior to experiments, were anesthetized by intraperitoneal injection of 500 mg/Kg of urethane and 50 mg/Kg of α-chloralose, and fixed to a supine position. Then the lower abdomen was opened through a midline incision to expose the bladder, and a balloon (1.5 to 2.0 cm^3) was inserted into the urinary bladder via small incision in the base thereof. The change of inner pressure is recorded via pressure transducer. The urinary reflex was induced by elevating the inner pressure to 10 to 20 cm H2 O. Urine was excreted from the incision of the bladder, where balloon was inserted.
The test compounds were given through polyethylene tube inserted into duodenum via an incision in the fundus.
Mean value of contraction according to the urinary reflex appeared during ten minutes before the administration of the compounds, and at 15, 30, 45 and 60 minutes thereafter, have been investigated for the determination of the effect of the present compounds. The mean value suppressed by more than 50% compared to the initial value has been estimated as effect. ID50 (50% effective dose) was obtained by up and down method.

What is called half-life is how long it takes for the measured level to halve. A higher half-life goes with slow decline.

Turning to `CCN(CC)CCNC(=O)c1cccc2c(=O)c(C)c(-c3ccccc3)oc12` [Compound 1], in “in vitro”, the “Ratio of Effect (T 1/2)” value is given as 1066.1 and the half-life at 50 µM was 27.1 days. Moreover, in the data set with urinary reflex, the ED50 turned out to be 36.7 mg/kg and the “Ratio of Effect” value stood at 7.42.
The like results for `Cc1c(-c2ccccc2)oc2c(C(=O)NCCN3CCCCC3)cccc2c1=O` [Compound 2] were, in that order, 475.4, 12.1 days, 26.8 mg/kg and 10.16.
Regarding `CCN(CC)CCN(C)C(=O)c1cccc2c(=O)c(C)c(-c3ccccc3)oc12` [Compound 3], in the data set “in vitro”, the “Ratio of Effect (T 1/2)” value is 252.1 and the half-life at 50 µM is 6.41 days. In the data set on urinary reflex, the ED50 is 46.7 mg/kg and the “Ratio of Effect” value worked out at 5.83.
For `Cc1c(-c2ccccc2)oc2c(C(=O)NCC(C)N3CCCCC3)cccc2c1=O` (stereo not drawn) [Compound 4], in that order: 1276.9, 32.5 days, 46.7 mg/kg and 5.83.
The like results for `CCN(CC)CCNC(=O)c1cccc2c(=O)c(C)c(-c3ccc(OC)cc3)oc12` [Compound 5] were, in that order, 1177.4, 29.9 days, 93.3 mg/kg and 2.92.
Regarding `Cc1c(-c2ccccc2)oc2c(C(=O)OCCN3CCCCC3)cccc2c1=O` [Reference 1, flavoxate, reference compound], in the data set “in vitro”, the “Ratio of Effect (T 1/2)” value is recorded as 1.0 and the half-life at 50 µM is 0.0254 days. Further, in the data set on urinary reflex, the ED50 came out at 272 mg/kg and the “Ratio of Effect” value came to 1.00.
For `CCN(CC)CCOC(=O)c1cccc2c(=O)c(C)c(-c3ccccc3)oc12` [Reference 2, reference compound], in that order: 2.3, 0.0579 days, 325 mg/kg and 0.84.
On to `Cc1c(-c2ccccc2)oc2c(C(=O)O)cccc2c1=O` [Reference 3, reference compound], for which, in the data set with urinary reflex, the ED50 came to 308 mg/kg and the “Ratio of Effect” value amounted to 0.89.
